Results as given in ChEMBL document CHEMBL3112450, “Synthesis and in vitro antitumor evaluation of primary amine substituted quinazoline linked benzimidazole” (Bioorg Med Chem Lett, 2014).

test system: LOX IMVI; experiment: Cytotoxicity against human LOXIMVI cells assessed as cell growth at 10^-5 M after 48 hrs by SRB assay; assay type: functional; details: read-out: Activity

| SMILES | growth at 10 µM |
| --- | --- |
| C=CCn1c(C)nc2ccc(Nc3nc(Nc4ccc5nc(C)n(CC=C)c5c4)c4ccccc4n3)cc21 | -91% |

test system: BT-549; experiment: Cytotoxicity against human BT549 cells assessed as cell growth at 10^-5 M after 48 hrs by SRB assay; assay type: functional; details: BT-549, 48 h, read-out: Activity

| SMILES | growth at 10 µM |
| --- | --- |
| C=CCn1c(C)nc2ccc(Nc3nc(Nc4ccc5nc(C)n(CC=C)c5c4)c4ccccc4n3)cc21 | -86% |

test system: not listed separately; experiment: Cytotoxicity against human Hs578T cells assessed as cell growth at 10^-5 M after 48 hrs by SRB assay; assay type: functional; details: Hs-578T, read-out: Activity

| SMILES | growth at 10 µM |
| --- | --- |
| C=CCn1c(C)nc2ccc(Nc3nc(Nc4ccc5nc(C)n(CC=C)c5c4)c4ccccc4n3)cc21 | -52% |

test system: SN12C; experiment: Cytotoxicity against human SN12C cells assessed as cell growth at 10^-5 M after 48 hrs by SRB assay; assay type: functional; details: read-out: Activity

| SMILES | growth at 10 µM |
| --- | --- |
| C=CCn1c(C)nc2ccc(Nc3nc(Nc4ccc5nc(C)n(CC=C)c5c4)c4ccccc4n3)cc21 | -100% |

test system: OVCAR-3; experiment: Cytotoxicity against human OVCAR3 cells assessed as cell growth at 10^-5 M after 48 hrs by SRB assay; assay type: functional; details: OVCAR-3, 48 h, read-out: Activity

| SMILES | growth at 10 µM |
| --- | --- |
| C=CCn1c(C)nc2ccc(Nc3nc(Nc4ccc5nc(C)n(CC=C)c5c4)c4ccccc4n3)cc21 | -99% |

test system: RXF 393; experiment: Cytotoxicity against human RXF393 cells assessed as cell growth at 10^-5 M after 48 hrs by SRB assay; assay type: functional; details: RXF 393, 48 h, read-out: Activity

| SMILES | growth at 10 µM |
| --- | --- |
| C=CCn1c(C)nc2ccc(Nc3nc(Nc4ccc5nc(C)n(CC=C)c5c4)c4ccccc4n3)cc21 | -93% |

test system: SK-MEL-5; experiment: Cytotoxicity against human SK-MEL-5 cells assessed as cell growth at 10^-5 M after 48 hrs by SRB assay; assay type: functional; details: SK-MEL-5, 48 h, read-out: Activity

| SMILES | growth at 10 µM |
| --- | --- |
| C=CCn1c(C)nc2ccc(Nc3nc(Nc4ccc5nc(C)n(CC=C)c5c4)c4ccccc4n3)cc21 | -98% |

test system: SNB-75; experiment: Cytotoxicity against human SNB75 cells assessed as cell growth at 10^-5 M after 48 hrs by SRB assay; assay type: functional; details: SNB-75, 48 h, read-out: Activity

| SMILES | growth at 10 µM |
| --- | --- |
| C=CCn1c(C)nc2ccc(Nc3nc(Nc4ccc5nc(C)n(CC=C)c5c4)c4ccccc4n3)cc21 | -95.2% |

test system: DU-145; experiment: Cytotoxicity against human DU145 cells assessed as cell growth at 10^-5 M after 48 hrs by SRB assay; assay type: functional; details: DU-145, 48 h, read-out: Activity

| SMILES | growth at 10 µM |
| --- | --- |
| C=CCn1c(C)nc2ccc(Nc3nc(Nc4ccc5nc(C)n(CC=C)c5c4)c4ccccc4n3)cc21 | -98% |

test system: NCI-H322M; experiment: Cytotoxicity against human NCI-H322M cells assessed as cell growth at 10^-5 M after 48 hrs by SRB assay; assay type: functional; details: read-out: Activity

| SMILES | growth at 10 µM |
| --- | --- |
| C=CCn1c(C)nc2ccc(Nc3nc(Nc4ccc5nc(C)n(CC=C)c5c4)c4ccccc4n3)cc21 | -88% |

test system: A498; experiment: Cytotoxicity against human A498 cells assessed as cell growth at 10^-5 M after 48 hrs by SRB assay; assay type: functional; details: A498, 48 h, read-out: Activity

| SMILES | growth at 10 µM |
| --- | --- |
| C=CCn1c(C)nc2ccc(Nc3nc(Nc4ccc5nc(C)n(CC=C)c5c4)c4ccccc4n3)cc21 | -91% |

test system: ACHN; experiment: Cytotoxicity against human ACHN cells assessed as cell growth at 10^-5 M after 48 hrs by SRB assay; assay type: functional; details: read-out: Activity

| SMILES | growth at 10 µM |
| --- | --- |
| C=CCn1c(C)nc2ccc(Nc3nc(Nc4ccc5nc(C)n(CC=C)c5c4)c4ccccc4n3)cc21 | -99% |

test system: SK-OV-3; experiment: Cytotoxicity against human SKOV3 cells assessed as cell growth at 10^-5 M after 48 hrs by SRB assay; assay type: functional; details: SK-OV-3, 48 h, read-out: Activity

| SMILES | growth at 10 µM |
| --- | --- |
| C=CCn1c(C)nc2ccc(Nc3nc(Nc4ccc5nc(C)n(CC=C)c5c4)c4ccccc4n3)cc21 | -100% |

test system: SW-620; experiment: Cytotoxicity against human SW620 cells assessed as cell growth at 10^-5 M after 48 hrs by SRB assay; assay type: functional; details: SW-620, 48 h, read-out: Activity

| SMILES | growth at 10 µM |
| --- | --- |
| C=CCn1c(C)nc2ccc(Nc3nc(Nc4ccc5nc(C)n(CC=C)c5c4)c4ccccc4n3)cc21 | -91% |

test system: SR; experiment: Cytotoxicity against human SR cells assessed as cell growth at 10^-5 M after 48 hrs by SRB assay; assay type: functional; details: read-out: Activity

| SMILES | growth at 10 µM |
| --- | --- |
| C=CCn1c(C)nc2ccc(Nc3nc(Nc4ccc5nc(C)n(CC=C)c5c4)c4ccccc4n3)cc21 | -57.2% |

test system: TK-10; experiment: Cytotoxicity against human TK10 cells assessed as cell growth at 10^-5 M after 48 hrs by SRB assay; assay type: functional; details: TK-10, 48 h, read-out: Activity

| SMILES | growth at 10 µM |
| --- | --- |
| C=CCn1c(C)nc2ccc(Nc3nc(Nc4ccc5nc(C)n(CC=C)c5c4)c4ccccc4n3)cc21 | -97% |

test system: RPMI-8226; experiment: Cytotoxicity against human RPMI8226 cells assessed as cell growth at 10^-5 M after 48 hrs by SRB assay; assay type: functional; details: RPMI-8226, 48 h, read-out: Activity

| SMILES | growth at 10 µM |
| --- | --- |
| C=CCn1c(C)nc2ccc(Nc3nc(Nc4ccc5nc(C)n(CC=C)c5c4)c4ccccc4n3)cc21 | -43.3% |

test system: HT-29; experiment: Cytotoxicity against human HT-29 cells assessed as cell growth at 10^-5 M after 48 hrs by SRB assay; assay type: functional; details: HT-29, 48 h, read-out: Activity

| SMILES | growth at 10 µM |
| --- | --- |
| C=CCn1c(C)nc2ccc(Nc3nc(Nc4ccc5nc(C)n(CC=C)c5c4)c4ccccc4n3)cc21 | -96.7% |

test system: SK-MEL-2; experiment: Cytotoxicity against human SK-MEL-2 cells assessed as cell growth at 10^-5 M after 48 hrs by SRB assay; assay type: functional; details: SK-MEL-2, 48 h, read-out: Activity

| SMILES | growth at 10 µM |
| --- | --- |
| C=CCn1c(C)nc2ccc(Nc3nc(Nc4ccc5nc(C)n(CC=C)c5c4)c4ccccc4n3)cc21 | -88% |
